Measured values reported in patent US7378413B2, “2-amino-3-(alkyl)-pyrimidone derivatives” (Sanofi Aventis, priority 2000, dated 2008).

SMILES	melting point
CCOCCCNc1nc(-c2ccncc2)cc(=O)n1C [Compound 59, 2-(3-Ethoxy-propylamino)-3-methyl-6-pyridin-4-yl-3H-pyrimidin-4-one]	118 to 120 °C
Cn1c(NCCCCCO)nc(-c2ccncc2)cc1=O [Compound 61, 2-(5-Hydroxy-pentylamino)-3-methyl-6-pyridin-4-yl-3H-pyrimidin-4-one]	164 to 165 °C
Cn1c(NCCCCO)nc(-c2ccncc2)cc1=O [Compound 62, 2-(4-Hydroxy-butylamino)-3-methyl-6-pyridin-4-yl-3H-pyrimidin-4-one]	159 to 161 °C
CC(C)OCCCNc1nc(-c2ccncc2)cc(=O)n1C [Compound 63, 2-(3-Isopropoxy-propylamino)-3-methyl-6-pyridin-4-yl-3H-pyrimidin-4-one]	95 to 98 °C
CCCOCCCNc1nc(-c2ccncc2)cc(=O)n1C [Compound 64, 3-Methyl-2-(3-propoxy-propylamino)-6-pyridin-4-yl-3H-pyrimidin-4-one]	107 to 109 °C
Cn1c(NCCC2CCCC2)nc(-c2ccncc2)cc1=O [Compound 66, 2-(2-Cyclopentyl-ethylamino)-3-methyl-6-pyridin-4-yl-3H-pyrimidin-4-one]	190 to 194 °C
Cn1c(NCCCN2CCCCC2)nc(-c2ccncc2)cc1=O [Compound 67, 3-Methyl-2-(3-piperidin-1-yl-propylamino)-6-pyridin-4-yl-3H-pyrimidin-4-one]	162 to 163 °C
CC(=O)OC(CNc1nc(-c2ccncc2)cc(=O)n1C)c1ccccc1 (stereo not drawn) [Compound 69, Acetic acid 2-(1-methyl-6-oxo-4-pyridin-4-yl-1 ,6-dihydro-pyrimidin-2-ylamino)-1-phenyl-ethyl ester]	81 to 84 °C
Cn1c(NCCC23CC4CC(CC(C4)C2)C3)nc(-c2ccncc2)cc1=O [Compound 70, 2-(2-Adamantan-1-yl-ethylamino)-3-methyl-6-pyridin-4-yl-3H-pyrimidin-4-one]	107 to 111 °C
Cn1c(NCc2cccc(OCCCO)c2)nc(-c2ccncc2)cc1=O [Compound 71, 2-[3-(3-Hydroxy-propoxy)-benzylamino]-3-methyl-6-pyridin-4-yl-3H-pyrimidin-4-one]	98 to 101 °C
CC(=O)OCCCOc1cccc(CNc2nc(-c3ccncc3)cc(=O)n2C)c1 [Compound 73, Acetic acid 3-{3-[(1-methyl-6-oxo-4-pyridin-4-yl-1 ,6-dihydro-pyrimidin-2-ylamino)-methyl]-phenoxy}-propyl ester]	198 to 201 °C
CN(C)CCCOc1cccc(CNc2nc(-c3ccncc3)cc(=O)n2C)c1 [Compound 74, 2-[3-(3-Dimethylamino-propoxy)-benzylamino]-3-methyl-6-pyridin-4-yl-3H-pyrimidin-4-one]	80 to 82 °C
Cn1c(NCCCc2ccccc2)nc(-c2ccncc2)cc1=O [Compound 78, 3-Methyl-2-(3-phenyl-propylamino)-6-pyridin-4-yl-3H-pyrimidin-4-one]	122 to 124 °C
O=c1cc(-c2ccncc2)nc(NCCCc2ccccc2)n1CCO [Compound 86, 3-(2-Hydroxy-ethyl)-2-(3-phenyl-propylamino)-6-pyridin-4-yl-3H-pyrimidin-4-one]	143 to 145 °C
Cn1c(NCCSc2ccccc2)nc(-c2ccncc2)cc1=O [Compound 92, 3-Methyl-2-(2-phenylsulfanyl-ethylamino)-6-pyridin-4-yl-3H-pyrimidin-4-one]	162 to 168 °C
Cn1c(NCCNc2ccccc2)nc(-c2ccncc2)cc1=O [Compound 93, 3-Methyl-2-(2-phenylamino-ethylamino)-6-pyridin-4-yl-3H-pyrimidin-4-one]	102 to 105 °C
Cn1c(NCCOc2ccccc2)nc(-c2ccncc2)cc1=O [Compound 94, 3-Methyl-2-(2-phenoxy-ethylamino)-6-pyridin-4-yl-3H-pyrimidin-4-one]	193 to 194 °C
Cn1c(NCCc2ccccn2)nc(-c2ccncc2)cc1=O [Compound 97, 3-Methyl-6-pyridin-4-yl-2(2-pyridin-2-yl-ethylamino)-3H-pyrimidin-4-one]	154 to 156 °C (dec.)
